Consider 14 compounds from patent publication EP0435946B1, “METHODS FOR MODIFYING THE BINDING OF CELL ADHESION RECEPTORS” (LA JOLLA CANCER RESEARCH FOUNDATION, priority 1988, dated 1990).

Series [1] addresses T1, fibronectin receptor (Homo sapiens, UniProt P05556+P08648). As to the kind of experiment: Attachment of fibronectin receptor liposomes to fibronectin-coated wells in the presence of cations. Format: binding. Also on record: from tissue; host or cells: human placenta. The note with it: for fibronectin receptor liposome attachment, result in words: compared with Ca²⁺, Ca²⁺ and Mg²⁺, or absence of Ca²⁺ or Mg²⁺; for % Attachment: cations 1 mM, percentage of control attachment in 1 mM CaCl₂ and 1 mM MgCl₂, mean and standard error, three experiments. The text has this:
The effect of cations on the binding of the fibronectin receptor to its ligand was studied by incorporating the receptor into liposomes and measuring receptor liposome attachment to a fibronectin-coated surface in the presence of various cations.
(§1) Fibronectin receptors were purified from human placenta by affinity chromatography on a 110 kDa chymotryptic fragment of fibronectin, according to the methods of Pytela et al., Cell 40:191 (1985), and Pytela et al., Meth. Enzymol. 144:475-489 (1987), with the following modifications. The 110 kDa fragment corresponds to the 120 kDa fragment described in Pytela et al. (1985), supra. […] Briefly, homogenized placental tissue was washed once with 2 volumes of cold TBS containing 1 mM CaCl₂, 1 mM MgCl₂ and 3 mM phenylmethyl sulfonyl fluoride (PMSF), centrifuged, and the pellet was extracted with 1 volume of cold TBS containing 100 mM octyl-β-D-glucopyranoside (Calbiochem, La Jolla, CA), and calcium, magnesium, and PMSF as in Pytela et al., (1985) supra. The clear extract was slowly applied at 4°C, first to a column of plain Sepharose, and then to 110 kDa fibronectin fragment-Sepharose. […] Bound receptor was eluted with the wash buffer containing 20 mM EDTA in place of calcium and magnesium. Eluted receptor was used immediately for the preparation of receptor liposomes or stored frozen. In some experiments, 1 mM MnCl₂ was substituted for CaCl₂ and MgCl₂ throughout the isolation procedure.
Aliquots of the receptor liposome preparation were mixed with the indicated cations (1 mM) and the attachment of the liposomes to microtiter wells coated with fibronectin was assayed. The results are expressed as a percentage of control attachment, which was measured in the presence of 1 mM CaCl₂ and 1 mM MgCl₂. Mean and standard error from three experiments are shown.

The target of series [2] is T2, Fibronectin receptor (FNR) (Homo sapiens, UniProt P05556+P08648).
T2 construct: from tissue; host or cells: human placenta
T2 sequence (P08648 42-894 limits assumed): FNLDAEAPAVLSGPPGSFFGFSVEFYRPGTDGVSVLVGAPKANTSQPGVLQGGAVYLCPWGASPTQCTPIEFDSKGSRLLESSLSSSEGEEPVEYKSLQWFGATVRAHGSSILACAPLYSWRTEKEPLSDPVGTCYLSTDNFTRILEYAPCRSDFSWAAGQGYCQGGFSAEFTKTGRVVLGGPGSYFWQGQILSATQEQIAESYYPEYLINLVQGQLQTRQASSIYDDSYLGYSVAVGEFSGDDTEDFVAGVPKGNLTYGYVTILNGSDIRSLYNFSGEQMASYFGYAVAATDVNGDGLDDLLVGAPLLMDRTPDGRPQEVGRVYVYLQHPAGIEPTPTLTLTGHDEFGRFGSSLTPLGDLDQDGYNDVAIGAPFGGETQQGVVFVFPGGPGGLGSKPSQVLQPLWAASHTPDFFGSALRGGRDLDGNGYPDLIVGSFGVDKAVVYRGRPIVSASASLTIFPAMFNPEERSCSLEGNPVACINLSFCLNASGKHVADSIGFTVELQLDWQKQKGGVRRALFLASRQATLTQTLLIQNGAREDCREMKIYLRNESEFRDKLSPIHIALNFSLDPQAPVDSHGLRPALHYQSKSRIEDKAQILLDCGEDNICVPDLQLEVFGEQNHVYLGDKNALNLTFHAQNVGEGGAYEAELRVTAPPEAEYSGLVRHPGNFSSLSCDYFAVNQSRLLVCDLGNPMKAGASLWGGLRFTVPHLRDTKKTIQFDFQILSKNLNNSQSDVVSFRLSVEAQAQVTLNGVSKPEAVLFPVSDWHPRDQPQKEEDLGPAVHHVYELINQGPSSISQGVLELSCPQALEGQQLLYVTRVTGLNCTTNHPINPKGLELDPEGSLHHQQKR
T2 sequence (P08648 895-1049 partner limits assumed): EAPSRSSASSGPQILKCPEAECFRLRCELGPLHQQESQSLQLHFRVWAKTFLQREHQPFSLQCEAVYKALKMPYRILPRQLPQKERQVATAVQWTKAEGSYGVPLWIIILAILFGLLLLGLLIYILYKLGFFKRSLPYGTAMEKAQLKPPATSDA
T2 sequence (P05556 21-798): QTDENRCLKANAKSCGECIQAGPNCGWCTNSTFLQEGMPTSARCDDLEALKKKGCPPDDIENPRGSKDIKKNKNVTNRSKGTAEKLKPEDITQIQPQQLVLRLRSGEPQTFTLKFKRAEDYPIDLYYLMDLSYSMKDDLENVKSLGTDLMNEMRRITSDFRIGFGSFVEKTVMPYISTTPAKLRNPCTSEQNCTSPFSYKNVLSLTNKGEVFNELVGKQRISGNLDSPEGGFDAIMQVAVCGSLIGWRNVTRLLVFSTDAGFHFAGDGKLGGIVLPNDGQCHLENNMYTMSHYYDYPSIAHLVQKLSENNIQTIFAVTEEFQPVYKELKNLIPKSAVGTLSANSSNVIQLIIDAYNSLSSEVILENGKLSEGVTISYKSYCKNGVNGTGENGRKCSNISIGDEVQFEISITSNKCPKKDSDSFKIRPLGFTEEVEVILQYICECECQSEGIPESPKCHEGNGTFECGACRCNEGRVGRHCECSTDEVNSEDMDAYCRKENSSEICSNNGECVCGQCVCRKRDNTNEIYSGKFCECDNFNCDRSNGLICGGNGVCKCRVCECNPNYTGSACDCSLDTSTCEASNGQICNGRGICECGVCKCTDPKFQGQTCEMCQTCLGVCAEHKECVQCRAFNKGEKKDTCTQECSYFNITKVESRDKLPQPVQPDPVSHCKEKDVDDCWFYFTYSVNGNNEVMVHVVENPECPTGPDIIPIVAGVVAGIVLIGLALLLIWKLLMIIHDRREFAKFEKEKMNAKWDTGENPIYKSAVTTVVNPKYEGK
As to the kind of experiment: Inhibition by Gd3+ of fibronectin receptor liposome attachment. Format: binding. The conditions noted are these: for % Inhibition FNR: 1 mM CaCl₂ and 1 mM MgCl₂. Here is the method:
(§2) The ability of Gd³⁺ to inhibit the binding of integrins was assayed in the liposome attachment system. Fibronectin receptor (FNR) and vitronectin receptor (VNR) liposomes were prepared by dialysis against TBS containing 1 mM CaCl₂ and 1 mM MgCl₂. Aliquots of GdCl₃ were added to the liposomes at the start of the assay. […] Such situations include binding of inflammatory cells at the site of a tissue injury caused by, for example, an ischemic episode, such as is associated with a cardiac or brain infarct.

The target of series [3] is T3, vitronectin receptor (VNR) (Homo sapiens, UniProt P05106+P06756).
T3 construct: Vitronectin receptor was purified from human placenta; from tissue; host or cells: human placenta
T3 sequence (P06756 31-889 limits assumed): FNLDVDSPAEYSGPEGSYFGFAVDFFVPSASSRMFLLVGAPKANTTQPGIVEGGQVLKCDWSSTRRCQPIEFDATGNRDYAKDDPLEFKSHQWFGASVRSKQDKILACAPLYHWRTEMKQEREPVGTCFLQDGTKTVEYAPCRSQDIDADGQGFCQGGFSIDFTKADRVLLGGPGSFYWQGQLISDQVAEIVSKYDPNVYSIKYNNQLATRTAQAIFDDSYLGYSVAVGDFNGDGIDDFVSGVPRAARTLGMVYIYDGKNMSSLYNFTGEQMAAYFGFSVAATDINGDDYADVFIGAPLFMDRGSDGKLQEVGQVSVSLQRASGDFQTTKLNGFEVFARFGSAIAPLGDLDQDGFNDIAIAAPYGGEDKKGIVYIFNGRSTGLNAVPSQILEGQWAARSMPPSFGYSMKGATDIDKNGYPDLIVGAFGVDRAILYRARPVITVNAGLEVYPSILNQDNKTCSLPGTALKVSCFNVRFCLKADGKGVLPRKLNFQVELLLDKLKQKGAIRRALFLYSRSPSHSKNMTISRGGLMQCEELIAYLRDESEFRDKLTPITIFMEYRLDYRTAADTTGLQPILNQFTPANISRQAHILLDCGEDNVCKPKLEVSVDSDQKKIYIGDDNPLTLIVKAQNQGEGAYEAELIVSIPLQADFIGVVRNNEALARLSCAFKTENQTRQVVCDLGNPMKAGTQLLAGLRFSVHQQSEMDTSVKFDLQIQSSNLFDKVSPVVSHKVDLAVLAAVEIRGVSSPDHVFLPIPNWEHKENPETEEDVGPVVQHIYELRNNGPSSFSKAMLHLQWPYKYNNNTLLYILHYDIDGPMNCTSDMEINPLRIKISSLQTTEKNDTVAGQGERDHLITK
T3 sequence (P06756 891-1048 partner limits assumed): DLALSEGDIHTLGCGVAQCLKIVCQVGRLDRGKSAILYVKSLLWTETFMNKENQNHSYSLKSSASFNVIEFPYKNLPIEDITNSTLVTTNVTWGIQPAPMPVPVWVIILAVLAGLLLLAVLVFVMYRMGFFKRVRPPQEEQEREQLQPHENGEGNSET
T3 sequence (P05106 27-788): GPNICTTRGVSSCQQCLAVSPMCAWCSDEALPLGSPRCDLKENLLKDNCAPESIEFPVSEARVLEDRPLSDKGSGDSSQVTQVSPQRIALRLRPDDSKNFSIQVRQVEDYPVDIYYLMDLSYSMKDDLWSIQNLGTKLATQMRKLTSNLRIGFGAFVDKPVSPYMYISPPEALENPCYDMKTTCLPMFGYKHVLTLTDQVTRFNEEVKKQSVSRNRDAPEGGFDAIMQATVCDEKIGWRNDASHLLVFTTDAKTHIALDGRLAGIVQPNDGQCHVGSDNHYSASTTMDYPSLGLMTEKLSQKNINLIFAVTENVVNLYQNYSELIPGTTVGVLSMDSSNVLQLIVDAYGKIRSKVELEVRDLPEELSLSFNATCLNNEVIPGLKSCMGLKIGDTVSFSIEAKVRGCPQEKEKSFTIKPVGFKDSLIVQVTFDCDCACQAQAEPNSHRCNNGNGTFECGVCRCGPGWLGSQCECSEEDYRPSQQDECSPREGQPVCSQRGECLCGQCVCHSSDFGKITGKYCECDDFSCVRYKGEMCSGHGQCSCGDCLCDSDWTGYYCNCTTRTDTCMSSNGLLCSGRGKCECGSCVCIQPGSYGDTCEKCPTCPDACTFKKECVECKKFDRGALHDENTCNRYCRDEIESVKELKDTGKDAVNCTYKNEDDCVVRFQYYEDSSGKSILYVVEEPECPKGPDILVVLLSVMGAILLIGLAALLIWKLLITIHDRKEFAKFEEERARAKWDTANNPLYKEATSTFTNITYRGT
As to the kind of experiment: Inhibition by Gd3+ of vitronectin receptor liposome attachment. The conditions noted are these: for % Inhibition VNR: 1 mM CaCl₂ and 1 mM MgCl₂. In kind it is binding. Here is the method: as §2

The target of the next series is T4, Vitronectin receptor (Homo sapiens, UniProt P05106+P06756).
T4 construct: Vitronectin receptor was purified from human placenta; from tissue; host or cells: human placenta
T4 sequence (P06756 31-889 limits assumed): as the sequence (P06756 31-889 limits assumed) above
T4 sequence (P06756 891-1048 partner limits assumed): as the sequence (P06756 891-1048 partner limits assumed) above
T4 sequence (P05106 27-788): as the sequence (P05106 27-788) above
As to the kind of experiment: Vitronectin receptor liposome attachment to vitronectin. In kind it is binding. The note with it: a number of liposome attachment assays. Here is the method:
Vitronectin receptor was purified from human placenta as described in Example I for the fibronectin receptor, but a different affinity matrix containing the peptide Gly-Arg-Gly-Asp-Ser-Pro-Lys was employed. The peptide was synthesized with an Applied Biosystems Model 430A, according to the manufacturer's instructions. Vitronectin receptor was isolated according to the method of Example I in the presence of 1 mM Ca²⁺ and 1mM Mg²⁺ or in 1 mM Ca²⁺ alone. In a number of liposome attachment assays, Mn²⁺ enhanced the binding of this integrin to vitronectin by 20-50% over the binding measured in Ca²⁺ and Mg²⁺.

A further series concerns Type I collagen receptor. Put plainly: Type I collagen receptor liposome binding to collagen. Also on record: species or system human. The text has this: Type I collagen receptor was also isolated from placenta, employing the method given in Example I with the following modifications. Mn²⁺ was used in the chromatography buffers for this procedure, and the affinity matrix contained Type I collagen.

Series [4] has as its system A375M cells. Put plainly: In vitro wound model of cell migration on ligand-coated cell-free lanes. Format: cell-based, human. The conditions noted are these: 100 µM MnCl₂ in media with Ca²⁺ and Mg²⁺; spaces coated with fibronectin and Type IV collagen; versus controls. On the procedure: An in vitro wounding assay was developed to test the effects of Mn²⁺ on cell migration into a wounded (cell free) area that was coated with various adhesion proteins. This assay allowed the determination of the specific ligands and the respective receptors that are involved in the migration process. More specifically, this assay was used to test cell migration on various substrates in the presence of Mn²⁺. A375M cells were grown to confluency in 6 well culture dishes (Corning, New York, NY). A specially designed comb which scratches out 4-2mm wide lanes was used to make a crossing pattern in the cell layer, removing the cells. The cell-free lanes were then coated for 1 hour at 37°C with one of the following ligands: fibronectin, vitronectin, Type I or Type IV collagen, bovine serum albumin or laminin. These proteins were dissolved in PBS at a concentration of 10µg/ml and then added directly to the wounded cell layer.
Standard Culture Media containing Ca²⁺ and Mg²⁺ and 100 µM MnCl₂ was added to the culture dishes while control dishes had the same media without Mn²⁺. Cell migration was monitored by visualization.

Series [5] concerns the target T1, fibronectin receptor. The note with it: Mn²⁺ versus Ca²⁺/Mg²⁺.
Series [6] concerns A375M cells.
For series [7], the target named is T1, fibronectin receptor. As to the kind of experiment: Yield of fibronectin receptor from affinity chromatography on 110 kDa fibronectin fragment, densitometry of SDS-PAGE. Also on record: from tissue; host or cells: human placenta. On the procedure:
as §1
Fibronectin receptor can be isolated by affinity chromatography on the 110 kDa fibronectin fragment (See Pytela, et al., (1985), (1987), supra). […]

The target of series [8] is T1, fibronectin receptor. Put plainly: Attachment of fibronectin receptor liposomes to fibronectin-coated wells in the presence of cations. In kind it is binding. Also on record: from tissue; host or cells: human placenta. The note with it: for binding of fibronectin receptor liposomes to fibronectin, multiple of binding measured in Ca²⁺ alone: in 1mM Ca²⁺; for binding of fibronectin receptor liposomes to fibronectin, multiple of binding measured in Ca²⁺ alone / binding of fibronectin receptor liposomes to fibronectin, multiple of binding measured in Mg²⁺ alone: mean and standard error, two experiments; for binding of fibronectin receptor liposomes to fibronectin, multiple of binding measured in Mg²⁺ alone: in 1mM Mg²⁺.

T1 sequence (P08648 42-894 limits assumed): as the sequence (P08648 42-894 limits assumed) above
T1 sequence (P08648 895-1049 partner limits assumed): as the sequence (P08648 895-1049 partner limits assumed) above
T1 sequence (P05556 21-798): as the sequence (P05556 21-798) above

Consider `[Ba+2]` [Ba²⁺], for which the “fibronectin receptor liposome attachment, result in words” value at fibronectin receptor [1] is on record as “produced less attachment than Ca²⁺, but did support fibronectin receptor attachment above the level found in the absence of either Ca²⁺ or Mg²⁺”.

`[Be+2]` [Be²⁺]: the “fibronectin receptor liposome attachment, result in words” value at fibronectin receptor [1] is “produced less attachment than Ca²⁺, but did support fibronectin receptor attachment above the level found in the absence of either Ca²⁺ or Mg²⁺”.

As to `[Ca+2].[Cl-].[Cl-]` [Ca²⁺, CaCl₂, reference compound], the “% Attachment” value at fibronectin receptor [1] is given as 75 ± 10%.

For `[Cd+2]` [Cd²⁺], on fibronectin receptor [1], the “% Attachment” value came to 130 ± 30%; the “fibronectin receptor liposome attachment, result in words” value was “increased the percentage of attachment above that obtained in the presence of Ca²⁺ and Mg²⁺”.

On to `[Co+2]` [Co²⁺], for which, on fibronectin receptor [1], the “% Attachment” value stood at 150 ± 13%; the “fibronectin receptor liposome attachment, result in words” value was “increased the percentage of attachment above that obtained in the presence of Ca²⁺ and Mg²⁺”.

For the compound `[Cu+2]` [Cu²⁺], at fibronectin receptor [1], the “fibronectin receptor liposome attachment, result in words” value is “produced increased attachment above that found in the absence of Ca²⁺ or Mg²⁺ in at least one experiment”.

With `[Fe+2]` [Fe²⁺], the “fibronectin receptor liposome attachment, result in words” value on fibronectin receptor [1] is recorded as “produced less attachment than Ca²⁺, but did support fibronectin receptor attachment above the level found in the absence of either Ca²⁺ or Mg²⁺”.

Take `[Cl][Gd]([Cl])[Cl]` [Gd³⁺, GdCl₃]: the “% Inhibition FNR” value is 8% in series [2] (Gd³⁺ 0.1 mM), 61% in [2] (Gd³⁺ 0.3 mM), 91% in series [2] (Gd³⁺ 1 mM) and 87% in series [2] (Gd³⁺ 3 mM). Moreover, the “attachment of fibronectin receptor to its ligand, result in words” value in [2] (concentrations above 0.3 mM) is recorded as “significant decrease in attachment”. The “% Inhibition VNR” value in [3] (Gd³⁺ 0.1 mM) is reported as 0%; in series [3] (Gd³⁺ 0.3 mM) it was 59%; in series [3] (Gd³⁺ 1 mM), 93%; in series [3] (Gd³⁺ 3 mM), 100%. For the same compound, the “attachment of vitronectin receptor to its ligand, result in words” value in [3] (concentrations above 0.3 mM) is on record as “significant decrease in attachment”. The “fibronectin receptor liposome attachment, result in words” value at fibronectin receptor [1] is “produced increased attachment above that found in the absence of Ca²⁺ or Mg²⁺ in at least one experiment”.

For `[La+3]` [La³⁺], the “fibronectin receptor liposome attachment, result in words” value at fibronectin receptor [1] is “produced increased attachment above that found in the absence of Ca²⁺ or Mg²⁺ in at least one experiment”.

Regarding `[Cl-].[Cl-].[Mg+2]` [Mg²⁺, MgCl₂, reference compound], the “% Attachment” value at fibronectin receptor [1] is 110 ± 5%.

In the case of `[Cl][Mn][Cl]` [Mn²⁺, MnCl₂], the “enhancement of binding to vitronectin over the binding measured in Ca²⁺ and Mg²⁺” value on Vitronectin receptor was 20-50%. For the same compound, the “binding of Type I collagen receptor liposomes to collagen, result in words” value in the series with Type I collagen receptor is “clear and specific binding to collagen”. Moreover, the “migration into cell-free spaces, result in words” value in the series on A375M cells [4] is listed as “augmented migration”. In addition, the “factor of increase of the relative affinity of the receptor for the fragment” value on fibronectin receptor [5] (ligand 110 kDa fibronectin fragment) came to 4.5. On fibronectin receptor [5] (ligand GRGDSP), the “factor of increase of the relative receptor affinity for the peptide” value is 50. Further, the “increase in invasion / migration of cells” value with A375M cells [6] (100 µM MnCl₂, after 72 hours) stood at 30%. Moreover, the “effect on cell viability and migration” value in the series on A375M cells [6] (concentrations higher than 100 µM) was “cell viability is affected and therefore migration is reduced”. Besides, the “% Attachment” value at fibronectin receptor [1] was determined as 210 ± 29%. Besides, at fibronectin receptor [1] (receptor isolated with Mn²⁺), the “binding of receptor isolated with Mn²⁺ in the liposome attachment assay, Mn²⁺ versus Ca²⁺/Mg²⁺” value was “several times higher”. Further, the “yield of receptor with Mn²⁺ relative to Ca²⁺ and Mg²⁺” value on fibronectin receptor [7] (1 mM Mn²⁺ substituted for Ca²⁺/Mg²⁺, estimated by densitometry) is “four-fold higher”. Moreover, the “Receptor Peak Area” value at fibronectin receptor [7] (cations 1 mM in chromatography buffers, Coomassie blue gels scanned) stood at 18.2. The “binding of fibronectin receptor liposomes to fibronectin, multiple of binding measured in Ca²⁺ alone” value was determined as 1.23 ± 0.66 on fibronectin receptor [8] (0.01 mM Mn²⁺ added), 4.41 ± 0.33 on fibronectin receptor [8] (0.1mM Mn²⁺ added) and 5.78 ± 0.47 at fibronectin receptor [8] (1 mM Mn²⁺ added). Besides, the “binding of fibronectin receptor liposomes to fibronectin, multiple of binding measured in Mg²⁺ alone” value was 0.97 ± 0.17 on fibronectin receptor [8] (0.01 mM Mn²⁺ added), 2.04 ± 0.08 on fibronectin receptor [8] (0.1mM Mn²⁺ added) and 3.12 ± 0.10 at fibronectin receptor [8] (1 mM Mn²⁺ added). The “concentration at which liposome attachment was promoted (as low as)” value on fibronectin receptor [8] (cation titration, Figure 1) was found to be 3 µM.

As for `[Ni+2]` [Ni²⁺], on fibronectin receptor [1], the “% Attachment” value was determined as 100 ± 12%; the “fibronectin receptor liposome attachment, result in words” value was “as effective as the combination of Ca²⁺ and Mg²⁺”.

As for `[Sr+2]` [Sr²⁺], on fibronectin receptor [1], the “fibronectin receptor liposome attachment, result in words” value was “produced increased attachment above that found in the absence of Ca²⁺ or Mg²⁺ in at least one experiment”.

Consider `[Zn+2]` [Zn²⁺], for which the “attachment, % of the control value” at fibronectin receptor [1] (one similar assay) is recorded as 128%.
